According to patent US6613760B1, “Indole derivatives and their use as MCP-1 receptor antagonists” (AstraZeneca AB, priority 1999, dated 2003):

Experiments:
hMCP-1 receptor = target: T1, hMCP-1 receptor (Homo sapiens, UniProt P41597); assay: 125I MCP-1 binding to human peripheral blood mononuclear cells (PBMCs); details: 100 pM 125I-labeled MCP-1, 37° C. 60 minutes
T1 construct: endogenous in cells; host or cells: human PBMCs from fresh donor blood (whole cells)
T1 sequence (P41597 1-360 isoform P41597-2): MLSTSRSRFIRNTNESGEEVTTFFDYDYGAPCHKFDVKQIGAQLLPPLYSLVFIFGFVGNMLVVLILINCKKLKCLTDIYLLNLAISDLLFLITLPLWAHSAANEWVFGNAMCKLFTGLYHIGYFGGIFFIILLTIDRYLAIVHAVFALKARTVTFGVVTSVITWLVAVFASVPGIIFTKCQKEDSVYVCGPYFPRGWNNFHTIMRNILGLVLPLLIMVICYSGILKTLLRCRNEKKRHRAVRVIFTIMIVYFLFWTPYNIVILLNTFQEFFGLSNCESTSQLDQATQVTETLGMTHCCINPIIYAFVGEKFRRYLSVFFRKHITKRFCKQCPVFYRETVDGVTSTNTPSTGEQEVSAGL
Procedure: Fresh human blood (200 ml) was obtained from volunteer donors, collected into sodium citrate anticoagulant to give a final concentration of 0.38%. The blood was mixed with Sedimentation Buffer and incubated at 37° C. for 20 minutes. The supernatant was collected and centrifuged at 1700 rpm for 5 minutes (Sorvall RT6000D). The pellet obtained was resuspended in 20 ml RPMI/BSA (1 mg/ml) and 4×5 mls of cells were carefully layered over 4×5 mls of Lymphoprepa (Nycomed) in 15 ml centrifuge tubes. Tubes were spun at 1700 rpm for 30 minutes (Sorvall RT6000D) and the resultant layer of cells was removed and transferred to 50 ml Falcon tubes. The cells were washed twice in Lysis Buffer to remove any remaining red blood cells followed by 2 washes in RPMI/BSA. Cells were resuspended in 5 mls of Binding Buffer. Cell number was measured on a Coulter counter and additional binding buffer was added to give a final concentration of 1.25×10^7 PBMCs/ml. […]
Test compound potency was determined by assay in duplicate using six point dose-response curves and IC50 concentrations were determined.

MCP-1 receptor B (CCR2B) = target: T2, MCP-1 receptor B (CCR2B) (Homo sapiens, UniProt P41597); assay: hMCP-1 receptor binding assay, 125I MCP-1 on CHO-CCR2B cell membranes
T2 construct: expressed in transfected cells; host or cells: CHO-K1 (clone 7, CHO-CCR2B), membrane fragments
T2 sequence (P41597 1-360 isoform P41597-2): T1 sequence (P41597 1-360 isoform P41597-2)
Source text: The MCP-1 receptor B (CCR2B) cDNA was cloned by PCR from THP-1 cell RNA using suitable oligonucleotide primers based on the published MCP-1 receptor sequences (Charo et al., 1994, Proc. Natl. Acad. Sci. USA, 91, 2752). The resulting PCR products were cloned into vector PCR-II™ (InVitrogen, San Diego, Calif.). Error free CCR2B cDNA was subcloned as a Hind III-Not I fragment into the eukaryotic expression vector pCDNA3 (InVitrogen) to generate pCDNA3/CC-CKR2A and pCDNA3/CCR2B respectively.
Linearised pCDNA3/CCR2B DNA was transfected into CHO-K1 cells by calcium phosphate precipitation (Wigler et al., 1979, Cell, 16, 777). Transfected cells were selected by the addition of Geneticin Sulphate (G418, Gibco BRL) at 1 mg/ml, 24 hours after the cells had been transfected. Preparation of RNA and Northern blotting were carried out as described previously (Needham et al., 1995, Prot. Express. Purific., 6. 134). CHO-K1 clone 7 (CHO-CCR2B) was identified as the highest MCP-1 receptor B expressor.
CHO-CCR2B cells were grown in DMEM supplemented with 10% foetal calf serum, 2 mM glutamine. 1×Non-Essential Amino Acids. 1×Hypoxanthine and Thymidine Supplement and Penicillin-Streptomycin (at 50 μg streptomycin/ml, Gibco BRL). Membrane fragments were prepared using cell lysis/differential centrifugation methods as described previously (Siciliano et al., 1990, J. Biol. Chem., 265, 19658). […]

THP-1 cells [1] = assay: MCP-1 mediated calcium flux in THP-1 cells; type: cell-based, human; details: stimulation of THP-1 cells with hMCP-1; read-out: EC50 of rise in [Ca2+]i
Procedure: The human monocytic cell line THP-1 as grown in a synthetic cell culture medium RPMI 1640 supplemented with 10% foetal calf serum, 6 mM glutamine and Penicillin-Streptomycin (at 50 μg streptomycin/ml, Gibco BRL). THP-1 cells were washed in HBSS (lacking Ca^2+ and Mg^2+)+1 mg/ml BSA and resuspended in the same buffer at a density of 3×10^6 cells/ml. The cells were then loaded with […] FURA-2/AM for 30 min at 37° C., washed twice in HBSS, and resuspended at 1×10^6 cells/mil. THP-1 cell suspension (0.9 ml) was added to a 5 ml disposable cuvette containing a magnetic stirrer bar and 2.1 ml of prewarmed (37° C.) HBSS containing 1 mg/ml BSA, 1 mM MgCl, and 2 mM CaCl2. The cuvette was placed in a fluorescence spectrophotometer (Perkin Elmer, Norwalk. Conn.) and preincubated for 4 min at 37° C. with stirring. Fluorescence was recorded over 70 sec and cells were stimulated by addition of hMCP-1 to the cuvette after 10 sec. [Ca^2+]i was measured by excitation at 340 nm and 380 nm alternately and subsequent measurement of the intensity of the fluorescence emission at 510 nm.
where the Kd for FURA-2 Ca^2+ complex at 37° C. was taken to be 224 nm. […]

THP-1 cells [2] = assay: hMCP-1 mediated chemotaxis of THP-1 cells; type: cell-based, human; details: biphasic response
Procedure: In vitro chemotaxis assays were performed using the human monocytic cell line THP-1. Cell migration through polycarbonate membranes was measured by enumerating those passing through either directly by Coulter counting or indirectly by use of a colourimetric viability assay measuring the cleavage of a tetrazolium salt by the mitochondrial respiratory chain (Scudiero D. A. et al. 1988, Cancer Res., 48, 4827-4833).
Chemoattractants were introduced into a 96-well microtitre plate which forms the lower well of a chemotaxis chamber fitted with a PVP-free 5 μm poresize polycarbonate adhesive framed filter membrane (NeuroProbe MB series, Cabin John, Md. 20818. USA) according to the manufacturer's instructions. […] The plate was incubated at 37° C. for 3 h and the absorbance of the soluble formazan product was read on a microtitre plate reader at 450 nm. The data was input into a spreadsheet, corrected for any random migration in the absence of chemoattractant and the average absorbance values, standard error of the mean, and significance tests were calculated. hMCP-1 induced concentration dependent cell migration with a characteristic biphasic response, maximal […]. […]

| IC50 (hMCP-1 receptor) | IC50 (MCP-1 receptor B (CCR2B); cold competition with 100 pM 125I-labeled MCP-1, CHO-CCR2B membrane fragments) | Kd (MCP-1 receptor B (CCR2B); equilibrium binding, CHO-CCR2B membrane fragments) | EC50 (THP-1 cells [1]) | Compound | concentration of maximal cell migration (THP-1 cells [2]) |
| --- | --- | --- | --- | --- | --- |
| 640 nM |  |  |  | CS(=O)(=O)NCCNC(=O)c1cccc2c1cc(C(=O)O)n2Cc1ccc(Cl)c(Cl)c1 [Compound 9] |  |
|  | 0.11 nM | 0.12 nM | ~2 nM | MCP-1: Human Monocyte Chemoattractant Protein-1, a C—C chemokine, ligand of the MCP-1 (CCR2) receptor | 0.5-1.0 nm |
